The target of this assay is T1, human GABA A receptor α5β3γ2 (Homo sapiens, UniProt P18507+P31644).
T1 construct: expressed in transfected cells; host or cells: HEK293 (transiently transfected), membrane preparation
Briefly: [3H]flumazenil competition binding assay, human GABA A α5 receptor. Particulars: human α5β3γ2 receptors transiently transfected in HEK293 cells; displacement of [3H]flumazenil 0.5 nM; 1 hour at 4° C.; means of two determinations; read-out: hKi GABA A α5. The protocol:
Membrane Preparation and Binding Assay
The affinity of compounds at GABA A receptor subtypes was measured by competition for [3H]flumazenil (85 Ci/mmol; Roche) binding to HEK293 cells expressing rat (stably transfected) or human (transiently transfected) receptors of composition α1β3γ2, α2β3γ2, α3β3γ2 and α5β3γ2.
Cell pellets were suspended in Krebs-tris buffer (4.8 mM KCl, 1.2 mM CaCl2, 1.2 mM MgCl2, 120 mM NaCl, 15 mM Tris; pH 7.5; binding assay buffer), homogenized by polytron for ca. 20 sec on ice and centrifuged for 60 min at 4° C. (50000 g; Sorvall, rotor: SM24=20000 rpm). The cell pellets were re-suspended in Krebs-tris buffer and homogenized by polytron for ca. 15 sec on ice. Protein was measured (Bradford method, Bio-Rad) and aliquots of 1 mL were prepared and stored at −80° C.
Radioligand binding assays were carried out in a volume of […] (96-well plates) which contained […] of cell membranes, [^3H]flumazenil at a concentration of 1 nM for α1, α2 and α3 subunits and 0.5 nM for α5 subunits and the test compound in the range of […]. Nonspecific binding was defined by 10^−5 M diazepam and typically represented less than 5% of the total binding. Assays were incubated to equilibrium for 1 hour at 4° C. and harvested onto GF/C uni-filters (Packard) by filtration using a Packard harvester and washing with ice-cold wash buffer (50 mM Tris; pH 7.5). After drying, filter-retained radioactivity was detected by liquid scintillation counting. Ki values were calculated using Excel-Fit (Microsoft) and are the means of two determinations.

Among the data in patent US8173652B2, “Isoxazole-isoxazoles and isoxazole-isothiazoles” (Hoffmann-La Roche Inc., priority 2009, dated 2012) are Ki values, retold here.

pKi: −log10 of the molar value.

Take `Cc1onc(-c2ccccc2)c1COc1cc(C(=O)NC(C)C)on1` [Example 3, 3-(5-Methyl-3-phenyl-isoxazol-4-ylmethoxy)-isoxazole-5-carboxylic acid isopropylamide]: the pKi was 8.12. To `Cc1onc(-c2ccccn2)c1COc1cc(C(=O)NC(C)C)sn1` [Example 36, 3-(5-Methyl-3-pyridin-2-yl-isoxazol-4-ylmethoxy)-isothiazole-5-carboxylic acid isopropyl-amide] belongs 7.82. `Cc1onc(-c2ccccn2)c1COc1cc(C(=O)NN2CCCC2)on1` [Example 21, 3-(5-Methyl-3-pyridin-2-yl-isoxazol-4-ylmethoxy)-isoxazole-5-carboxylic acid pyrrolidin-1-ylamide]: the pKi was 8.11. In the case of `Cc1onc(-c2ccc(F)cn2)c1COc1cc(C(=O)NC2CCOC2)sn1` (stereo not drawn) [Example 40, 3-[3-(5-Fluoro-pyridin-2-yl)-5-methyl-isoxazol-4-ylmethoxy]-isothiazole-5-carboxylic acid (tetrahydro-furan-3-yl)-amide], the pKi is 8.42. To `CCCCc1noc(C)c1COc1cc(C(=O)N[C@@H](C)CO)on1` [Example 26, 3-(3-Butyl-5-methyl-isoxazol-4-ylmethoxy)-isoxazole-5-carboxylic acid ((S)-2-hydroxy-1-methyl-ethyl)-amide] belongs 7.64. Consider `Cc1onc(-c2ccccc2)c1COc1cc(C(=O)NC(C)CO)on1` (stereo not drawn) [Example 6, 3-(5-Methyl-3-phenyl-isoxazol-4-ylmethoxy)-isoxazole-5-carboxylic acid (2-hydroxy-1-methyl-ethyl)-amide], for which the pKi was 8.06. With `Cc1onc(-c2ccccn2)c1COc1cc(C(=O)NCCO)on1` [Example 15, 3-(5-Methyl-3-pyridin-2-yl-isoxazol-4-ylmethoxy)-isoxazole-5-carboxylic acid (2-hydroxy-ethyl)-amide], the pKi was 8.52. On to `Cc1onc(-c2ccccn2)c1COc1cc(C(=O)NN2CCCCC2)on1` [Example 20, 3-(5-Methyl-3-pyridin-2-yl-isoxazol-4-ylmethoxy)-isoxazole-5-carboxylic acid piperidin-1-ylamide], for which the pKi is 8.22. The value for `Cc1onc(-c2ccccn2)c1COc1cc(C(=O)NN2CCOCC2)on1` [Example 19, 3-(5-Methyl-3-pyridin-2-yl-isoxazol-4-ylmethoxy)-isoxazole-5-carboxylic acid morpholin-4-ylamide] was 8.70; that for `Cc1onc(-c2ccccc2)c1COc1cc(C(=O)NCCO)sn1` [Example 35, 3-(5-Methyl-3-phenyl-isoxazol-4-ylmethoxy)-isothiazole-5-carboxylic acid (2-hydroxy-ethyl)-amide] was 7.46. `Cc1onc(-c2ccccc2)c1COc1cc(C(=O)NN(C)C)on1` [Example 10, 3-(5-Methyl-3-phenyl-isoxazol-4-ylmethoxy)-isoxazole-5-carboxylic acid N′,N′-dimethyl-hydrazide]: the pKi is 7.65. Consider `CC(C)NC(=O)c1cc(OCc2c(-c3ccc(F)cc3)noc2CO)no1` [Example 43, 3-[3-(4-Fluoro-phenyl)-5-hydroxymethyl-isoxazol-4-ylmethoxy]-isoxazole-5-carboxylic acid isopropylamide], for which the pKi is 8.06.
